According to ChEMBL document CHEMBL1142358, “3-amino-benzo[d]isoxazoles as novel multitargeted inhibitors of receptor tyrosine kinases” (J Med Chem, 2008):
Values belong to the compound of their own block, whether it stands above or below them. Calls of active or inactive are those of the source. The calls are words filed in the database; no cut-off is given here.

What was measured:
[1] = target: Mast/stem cell growth factor receptor Kit (Homo sapiens, UniProt P10721); test: Inhibition of KIT by HTRF assay
Mast/stem cell growth factor receptor Kit, sequence (P10721 whole entry): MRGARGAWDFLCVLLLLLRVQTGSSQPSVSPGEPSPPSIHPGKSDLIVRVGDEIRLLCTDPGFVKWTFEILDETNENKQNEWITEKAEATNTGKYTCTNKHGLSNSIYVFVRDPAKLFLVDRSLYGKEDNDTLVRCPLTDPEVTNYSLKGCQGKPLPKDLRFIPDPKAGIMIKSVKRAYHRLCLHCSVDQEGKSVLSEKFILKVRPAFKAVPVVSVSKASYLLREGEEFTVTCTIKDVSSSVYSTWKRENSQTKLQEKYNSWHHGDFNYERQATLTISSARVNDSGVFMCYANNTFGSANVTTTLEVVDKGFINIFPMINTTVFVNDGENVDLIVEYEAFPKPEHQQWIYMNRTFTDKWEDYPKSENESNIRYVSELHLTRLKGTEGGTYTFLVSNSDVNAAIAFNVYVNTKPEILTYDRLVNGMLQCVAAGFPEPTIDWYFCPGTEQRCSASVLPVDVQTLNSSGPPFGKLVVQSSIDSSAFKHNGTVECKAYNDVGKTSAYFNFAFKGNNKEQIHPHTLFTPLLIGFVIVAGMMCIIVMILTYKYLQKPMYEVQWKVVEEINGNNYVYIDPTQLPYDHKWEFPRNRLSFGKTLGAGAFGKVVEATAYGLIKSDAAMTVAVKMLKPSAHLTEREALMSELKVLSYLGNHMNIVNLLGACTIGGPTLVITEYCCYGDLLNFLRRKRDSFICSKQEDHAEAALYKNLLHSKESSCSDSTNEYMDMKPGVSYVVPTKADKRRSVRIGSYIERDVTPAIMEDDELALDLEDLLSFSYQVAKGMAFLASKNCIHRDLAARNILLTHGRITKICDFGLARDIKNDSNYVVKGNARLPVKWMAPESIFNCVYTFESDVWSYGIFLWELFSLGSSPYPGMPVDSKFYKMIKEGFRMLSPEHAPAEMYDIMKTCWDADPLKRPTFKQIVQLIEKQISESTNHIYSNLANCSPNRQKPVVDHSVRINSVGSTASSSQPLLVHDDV

[2] = target: T1, Receptor-type tyrosine-protein kinase FLT3 (Homo sapiens, UniProt P36888)
T1 sequence (P36888 whole entry): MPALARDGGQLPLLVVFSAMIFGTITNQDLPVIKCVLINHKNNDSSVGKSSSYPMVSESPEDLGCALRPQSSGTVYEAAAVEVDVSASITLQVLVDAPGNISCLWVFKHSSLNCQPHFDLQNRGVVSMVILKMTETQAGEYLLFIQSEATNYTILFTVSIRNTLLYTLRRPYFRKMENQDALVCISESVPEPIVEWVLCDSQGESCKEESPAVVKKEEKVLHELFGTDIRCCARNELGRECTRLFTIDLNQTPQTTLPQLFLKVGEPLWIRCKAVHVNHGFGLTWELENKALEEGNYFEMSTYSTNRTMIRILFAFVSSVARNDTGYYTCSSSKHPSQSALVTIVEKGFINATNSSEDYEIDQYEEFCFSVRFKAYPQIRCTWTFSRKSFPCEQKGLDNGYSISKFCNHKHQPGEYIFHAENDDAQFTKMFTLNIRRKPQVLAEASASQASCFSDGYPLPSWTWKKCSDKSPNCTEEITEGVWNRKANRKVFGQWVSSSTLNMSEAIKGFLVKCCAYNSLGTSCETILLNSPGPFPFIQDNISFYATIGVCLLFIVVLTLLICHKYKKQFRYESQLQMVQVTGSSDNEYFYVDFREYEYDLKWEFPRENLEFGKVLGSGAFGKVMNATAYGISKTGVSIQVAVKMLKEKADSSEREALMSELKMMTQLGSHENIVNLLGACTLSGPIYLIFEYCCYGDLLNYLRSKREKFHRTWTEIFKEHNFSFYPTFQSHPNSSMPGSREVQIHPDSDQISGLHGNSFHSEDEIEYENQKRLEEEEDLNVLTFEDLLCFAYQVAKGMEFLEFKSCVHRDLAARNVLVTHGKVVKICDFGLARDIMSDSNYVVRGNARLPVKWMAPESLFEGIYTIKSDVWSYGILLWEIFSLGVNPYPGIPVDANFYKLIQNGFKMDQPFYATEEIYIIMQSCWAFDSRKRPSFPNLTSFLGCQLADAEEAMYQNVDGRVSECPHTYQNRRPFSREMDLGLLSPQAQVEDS
Description: Inhibition of FLT3 by HTRF assay

Mus musculus = test: Inhibition of estradiol-induced uterine edema in orally dosed BALB/c mouse edema model; format: functional; settings: po
[3] = Volume of distribution in mouse at 3 mg/kg, iv; format: ADME, organism-based; parameters: dose 3 mg/kg, route intravenous; settings: in vivo
HT-1080 [4] = test: Inhibition of tumor growth in human HT1080 cells xenografted in SCID/Beige mouse at 30 mg/kg/day, bid relative to control; settings: HT-1080, read-out: TGI
[5] = AUC (0 to 24 hrs) in mouse plasma at 30 mg/kg/day; format: ADME, organism-based; parameters: dose 30 mg/kg/day, time < 24 hr
[6] = Half life in mouse at 3 mg/kg, iv; format: ADME, organism-based; parameters: dose 3 mg/kg, route intravenous; settings: in vivo
[7] = target: Tyrosine-protein kinase Lyn (Homo sapiens, UniProt P07948); test: Inhibition of LYN by HTRF assay
Tyrosine-protein kinase Lyn, sequence (P07948 whole entry): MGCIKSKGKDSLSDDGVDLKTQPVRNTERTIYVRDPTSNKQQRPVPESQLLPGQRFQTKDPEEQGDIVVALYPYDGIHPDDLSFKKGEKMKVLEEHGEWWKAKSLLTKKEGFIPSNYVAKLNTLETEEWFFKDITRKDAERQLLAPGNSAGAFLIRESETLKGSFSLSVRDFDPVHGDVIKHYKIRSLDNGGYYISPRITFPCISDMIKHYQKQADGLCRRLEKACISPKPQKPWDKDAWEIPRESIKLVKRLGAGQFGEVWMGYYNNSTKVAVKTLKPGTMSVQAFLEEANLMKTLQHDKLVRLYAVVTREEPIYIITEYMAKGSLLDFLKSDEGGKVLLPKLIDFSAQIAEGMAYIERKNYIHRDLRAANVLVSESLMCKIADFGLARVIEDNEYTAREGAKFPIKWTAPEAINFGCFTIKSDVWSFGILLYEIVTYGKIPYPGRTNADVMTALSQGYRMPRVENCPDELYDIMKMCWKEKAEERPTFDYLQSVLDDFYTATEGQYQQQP

[8] = Clearance in mouse at 3 mg/kg, iv; format: ADME, organism-based; parameters: dose 3 mg/kg, route intravenous; settings: in vivo
[9] = target: T2, Vascular endothelial growth factor receptor 2 (Homo sapiens, UniProt P35968)
T2 sequence (P35968 whole entry): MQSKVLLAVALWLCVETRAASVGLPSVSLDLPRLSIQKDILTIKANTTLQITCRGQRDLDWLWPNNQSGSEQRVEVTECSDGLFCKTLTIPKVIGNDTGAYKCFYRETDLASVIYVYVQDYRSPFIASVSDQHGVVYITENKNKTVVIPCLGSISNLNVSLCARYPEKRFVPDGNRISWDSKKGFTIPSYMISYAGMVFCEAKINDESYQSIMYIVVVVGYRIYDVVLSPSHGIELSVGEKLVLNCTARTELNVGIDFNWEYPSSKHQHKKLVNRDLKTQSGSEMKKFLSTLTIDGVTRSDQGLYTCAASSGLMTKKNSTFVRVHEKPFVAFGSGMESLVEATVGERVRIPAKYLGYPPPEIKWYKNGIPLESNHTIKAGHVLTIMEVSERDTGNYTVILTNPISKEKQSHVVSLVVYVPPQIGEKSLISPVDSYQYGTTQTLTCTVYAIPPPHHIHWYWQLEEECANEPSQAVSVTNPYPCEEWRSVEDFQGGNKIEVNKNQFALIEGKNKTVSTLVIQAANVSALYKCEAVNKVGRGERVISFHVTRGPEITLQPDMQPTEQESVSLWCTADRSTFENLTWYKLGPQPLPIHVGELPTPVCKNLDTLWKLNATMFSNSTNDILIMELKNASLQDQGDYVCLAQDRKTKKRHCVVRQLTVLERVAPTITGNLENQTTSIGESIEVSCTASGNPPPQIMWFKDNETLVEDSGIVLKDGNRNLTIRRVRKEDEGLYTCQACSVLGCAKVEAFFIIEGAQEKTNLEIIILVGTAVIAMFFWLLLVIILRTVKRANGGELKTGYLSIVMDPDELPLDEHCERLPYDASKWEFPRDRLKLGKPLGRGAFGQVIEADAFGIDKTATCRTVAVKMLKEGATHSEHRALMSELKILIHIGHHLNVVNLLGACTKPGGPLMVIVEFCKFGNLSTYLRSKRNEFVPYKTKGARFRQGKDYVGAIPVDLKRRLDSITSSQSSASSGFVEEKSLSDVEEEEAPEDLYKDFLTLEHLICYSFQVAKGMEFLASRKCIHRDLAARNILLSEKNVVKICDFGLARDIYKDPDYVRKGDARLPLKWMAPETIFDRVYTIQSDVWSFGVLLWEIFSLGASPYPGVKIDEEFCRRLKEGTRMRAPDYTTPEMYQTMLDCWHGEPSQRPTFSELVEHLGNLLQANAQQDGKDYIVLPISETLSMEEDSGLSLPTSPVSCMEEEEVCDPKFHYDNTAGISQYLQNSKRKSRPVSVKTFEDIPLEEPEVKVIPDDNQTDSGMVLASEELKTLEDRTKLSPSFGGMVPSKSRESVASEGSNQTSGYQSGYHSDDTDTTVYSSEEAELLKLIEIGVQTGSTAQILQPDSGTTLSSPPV
Description: Inhibition of KDR by HTRF assay

[10] = target: Receptor-type tyrosine-protein kinase FLT3 (Homo sapiens) (UniProt P36888)
Description: Inhibition of FLT3 by HTRF assay

[11] = target: Macrophage colony-stimulating factor 1 receptor (Homo sapiens, UniProt P07333); test: Inhibition of CSF1R by HTRF assay
Macrophage colony-stimulating factor 1 receptor, sequence (P07333 whole entry): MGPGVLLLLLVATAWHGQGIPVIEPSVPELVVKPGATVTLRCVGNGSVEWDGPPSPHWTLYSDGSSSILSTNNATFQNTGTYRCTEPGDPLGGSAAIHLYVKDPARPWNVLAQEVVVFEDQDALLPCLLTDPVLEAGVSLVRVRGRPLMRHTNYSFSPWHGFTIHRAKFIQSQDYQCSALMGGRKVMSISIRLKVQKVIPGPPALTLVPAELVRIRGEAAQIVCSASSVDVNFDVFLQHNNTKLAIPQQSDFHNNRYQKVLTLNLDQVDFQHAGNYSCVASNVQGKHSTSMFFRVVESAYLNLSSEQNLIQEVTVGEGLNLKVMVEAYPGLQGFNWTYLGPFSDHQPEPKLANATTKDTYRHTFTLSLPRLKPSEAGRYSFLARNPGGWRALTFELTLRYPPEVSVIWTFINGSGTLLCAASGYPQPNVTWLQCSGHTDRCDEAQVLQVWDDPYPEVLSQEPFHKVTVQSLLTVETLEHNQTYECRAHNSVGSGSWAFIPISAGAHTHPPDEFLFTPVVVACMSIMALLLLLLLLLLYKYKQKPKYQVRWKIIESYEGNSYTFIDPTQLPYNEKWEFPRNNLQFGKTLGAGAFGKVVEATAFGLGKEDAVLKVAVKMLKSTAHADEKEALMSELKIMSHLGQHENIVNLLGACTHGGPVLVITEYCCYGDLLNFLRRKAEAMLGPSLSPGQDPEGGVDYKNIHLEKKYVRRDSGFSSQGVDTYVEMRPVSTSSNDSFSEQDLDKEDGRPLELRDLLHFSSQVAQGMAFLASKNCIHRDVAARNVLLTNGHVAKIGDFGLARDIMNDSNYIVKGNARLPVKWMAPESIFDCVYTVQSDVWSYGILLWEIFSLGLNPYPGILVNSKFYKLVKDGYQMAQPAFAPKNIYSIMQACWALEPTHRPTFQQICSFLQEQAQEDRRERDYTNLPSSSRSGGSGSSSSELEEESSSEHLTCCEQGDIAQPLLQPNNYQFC

[12] = target: Tyrosine-protein kinase HCK (Homo sapiens, UniProt P08631); test: Inhibition of HCK by HTRF assay
Angiopoietin-1 receptor = Angiopoietin-1 receptor (Homo sapiens, UniProt Q02763); test: Inhibition of TIE2 by HTRF assay
[13] = target: Vascular endothelial growth factor receptor 1 (Homo sapiens, UniProt P17948); test: Inhibition of FLT1 by HTRF assay
[14] = target: Platelet-derived growth factor receptor beta (Homo sapiens, UniProt P09619); test: Inhibition of PDGFRbeta by HTRF assay
Platelet-derived growth factor receptor beta, sequence (P09619 whole entry): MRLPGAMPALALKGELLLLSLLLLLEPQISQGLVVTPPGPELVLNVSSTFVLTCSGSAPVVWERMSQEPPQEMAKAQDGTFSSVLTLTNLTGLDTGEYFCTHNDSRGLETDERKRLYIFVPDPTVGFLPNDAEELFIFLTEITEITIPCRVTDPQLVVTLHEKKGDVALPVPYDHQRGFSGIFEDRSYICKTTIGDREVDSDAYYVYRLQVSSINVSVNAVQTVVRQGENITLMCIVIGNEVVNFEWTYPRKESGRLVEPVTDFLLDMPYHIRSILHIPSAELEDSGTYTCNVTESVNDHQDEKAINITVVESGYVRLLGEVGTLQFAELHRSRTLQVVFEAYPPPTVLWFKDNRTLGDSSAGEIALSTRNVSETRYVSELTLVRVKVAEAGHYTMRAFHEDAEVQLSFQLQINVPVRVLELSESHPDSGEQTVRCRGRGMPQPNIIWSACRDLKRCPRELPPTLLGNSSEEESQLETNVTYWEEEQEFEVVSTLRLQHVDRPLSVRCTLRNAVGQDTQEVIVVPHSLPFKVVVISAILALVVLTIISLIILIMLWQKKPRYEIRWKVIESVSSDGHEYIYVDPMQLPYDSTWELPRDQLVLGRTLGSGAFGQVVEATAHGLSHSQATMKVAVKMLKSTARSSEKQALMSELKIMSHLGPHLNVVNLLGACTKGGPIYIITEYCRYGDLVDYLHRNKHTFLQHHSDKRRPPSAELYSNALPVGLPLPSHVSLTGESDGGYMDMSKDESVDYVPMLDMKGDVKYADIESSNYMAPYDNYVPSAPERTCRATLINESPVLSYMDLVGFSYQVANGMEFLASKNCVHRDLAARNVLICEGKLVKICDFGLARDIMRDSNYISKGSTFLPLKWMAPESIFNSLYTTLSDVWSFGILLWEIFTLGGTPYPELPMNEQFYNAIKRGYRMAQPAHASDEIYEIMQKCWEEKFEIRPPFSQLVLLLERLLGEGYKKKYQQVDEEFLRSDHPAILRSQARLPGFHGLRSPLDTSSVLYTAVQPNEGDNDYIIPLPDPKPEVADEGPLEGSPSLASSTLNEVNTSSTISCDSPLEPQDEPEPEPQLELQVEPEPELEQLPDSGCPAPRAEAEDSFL

[15] = AUC in mouse at 10 mg/kg, po; format: ADME, organism-based; parameters: dose 10 mg/kg, route oral; settings: plasma
[16] = Oral bioavailability in mouse at 10 mg/kg; format: ADME, organism-based; settings: in vivo
[17] = target: Proto-oncogene tyrosine-protein kinase Src (Homo sapiens, UniProt P12931); test: Inhibition of SRC by HTRF assay
[18] = target: Voltage-gated inwardly rectifying potassium channel KCNH2 (Homo sapiens, UniProt Q12809)
Description: Displacement of [3H]dofetilide from human ERG expressed in HEK293 cells

[19] = AUC (0 to 24 hrs) in mouse plasma at 10 mg/kg/day; format: ADME, organism-based; parameters: time < 24 hr, dose 10 mg/kg/day
HT-1080 [20] = test: Inhibition of tumor growth in human HT1080 cells xenografted in SCID/Beige mouse at 10 mg/kg/day, bid relative to control; format: functional; settings: read-out: TGI
[21] = Volume of distribution in mouse at 1 mg/kg, iv; format: ADME, organism-based; parameters: dose 1 mg/kg, route intravenous; settings: in vivo
[22] = Clearance in mouse at 1 mg/kg, iv; format: ADME, organism-based; parameters: dose 1 mg/kg, route intravenous; settings: in vivo
[23] = Inhibition of FGFR by HTRF assay
[24] = Half life in mouse at 1 mg/kg, iv; format: ADME, organism-based; parameters: dose 1 mg/kg, route intravenous; settings: in vivo
[25] = target: T2, Vascular endothelial growth factor receptor 2; test: Inhibition of human KDR phosphorylation in mouse NIH3T3 cells by ELISA; format: cell-based

IC50 [1]: 64 nM
IC50 [2]: 61 nM
SMILES: Cc1ccc(F)c(NC(=O)Nc2ccc(-c3ccc(C)c4onc(N)c34)cc2)c1

IC50 [1]: 114 nM
IC50 [2]: 64 nM
SMILES: Nc1noc2cccc(-c3ccc(NC(=O)Nc4cccc(C(F)(F)F)c4)cc3)c12

Vd [3]: 2.7 L/kg
AUC at 24 h [5]: 19.1 µM·h
half-life [6]: 1.7 h
IC50 [7]: > 50000 nM
clearance [8]: 18.3 mL/min/kg
SMILES: Cc1ccc(F)c(NC(=O)Nc2ccc(-c3cccc4[nH]nc(N)c34)cc2)c1 [LINIFANIB]
ED50 (Mus musculus): 0.4 mg/kg
inhibition in vivo at 30 mg/kg/day (HT-1080 [4]): 85%

IC50 [1]: 790 nM
IC50 [9]: 628 nM
IC50 [2]: 1500 nM
SMILES: Cc1ccc(F)c(NC(=O)Nc2ccc(-c3cccc4snc(N)c34)cc2)c1

IC50 [1]: 5 nM
Activity [10]: inactive
SMILES: COc1ccc(NC(=O)Nc2ccc(-c3cccc4onc(N)c34)cc2)cc1

IC50 [1]: 23400 nM
SMILES: Nc1noc2cccc(-c3ccc(NC(=O)Nc4ccccc4C(F)(F)F)cc3)c12

IC50 [1]: 18 nM
SMILES: Nc1noc2cccc(-c3ccc(NC(=O)Nc4ccccc4)cc3)c12

IC50 [1]: 14 nM
IC50 [2]: 5 nM
SMILES: Nc1noc2cccc(-c3ccc(NC(=O)Nc4cccc([N+](=O)[O-])c4)cc3)c12

IC50 [1]: 216 nM
IC50 [9]: 211 nM
IC50 [2]: 173 nM
SMILES: Cc1ccc(F)c(NC(=O)Nc2ccc(-c3ccc(F)c4onc(N)c34)cc2)c1

IC50 [1]: 50 nM
SMILES: Cc1ccc(NC(=O)Nc2ccc(-c3cccc4onc(N)c34)cc2)cc1Cl

IC50 [1]: 5 nM
SMILES: Cc1ccc(NC(=O)Nc2ccc(-c3cccc4onc(N)c34)cc2)cc1

SMILES: COc1ccc(-c2ccc(NC(=O)Nc3cc(C)ccc3F)cc2)c2c(N)noc12
IC50 [11]: 27 nM
IC50 [1]: 43 nM
ED50 (Mus musculus): 3.2 mg/kg
IC50 [12]: > 50000 nM
Vd [3]: 0.94 L/kg
inhibition in vivo at 30 mg/kg/day (HT-1080 [4]): 55%
IC50 (Angiopoietin-1 receptor): 249 nM
IC50 [13]: 24 nM
half-life [6]: 0.66 h
IC50 [7]: > 50000 nM
clearance [8]: 16.7 mL/min/kg
IC50 [14]: 96 nM
AUC [15]: 8.5 µM·h
IC50 [2]: 36 nM
bioavailability [16]: 34%
IC50 [17]: > 50000 nM
IC50 [18]: > 30000 nM

IC50 [1]: 27 nM
Activity [10]: inactive
SMILES: Nc1noc2cccc(-c3ccc(NC(=O)Nc4ccc(C(F)(F)F)cc4)cc3)c12

IC50 [1]: 4440 nM
SMILES: NC(=O)Nc1ccc(-c2cccc3onc(N)c23)cc1

IC50 [1]: 294 nM
IC50 [2]: 58 nM
SMILES: Cc1ccc(F)c(NC(=O)Nc2ccc(-c3ccc(OC(F)(F)F)c4onc(N)c34)cc2)c1

IC50 [1]: 21 nM
SMILES: Nc1noc2cccc(-c3ccc(NC(=O)Nc4ccccc4F)cc3)c12

IC50 [11]: 30 nM
IC50 [1]: 56 nM
IC50 [12]: > 50000 nM
IC50 (Angiopoietin-1 receptor): 270 nM
AUC at 24 h [19]: 13.2 µM·h
Vd [21]: 2.2 L/kg
IC50 [13]: 16 nM
clearance [22]: 28.3 mL/min/kg
IC50 [7]: > 50000 nM
IC50 [14]: 130 nM
AUC [15]: 30.6 µM·h
IC50 [23]: 3000 nM
IC50 [2]: 19 nM
bioavailability [16]: 100%
half-life [24]: 0.9 h
IC50 [17]: > 50000 nM
SMILES: COc1ccc(-c2ccc(NC(=O)Nc3cccc(C(F)(F)F)c3)cc2)c2c(N)noc12
ED50 (Mus musculus): 2 mg/kg
inhibition in vivo at 10 mg/kg/day (HT-1080 [20]): 81%

IC50 [25]: 36 nM
IC50 [9]: 8 nM
IC50 [2]: 8 nM
SMILES: COc1ccc(NC(=O)Nc2ccc(-c3cccc4onc(N)c34)cc2)cc1Cl

Vd [3]: 3.1 L/kg
half-life [6]: 1.9 h
clearance [8]: 18.3 mL/min/kg
AUC [15]: 13.8 µM·h
bioavailability [16]: 71%
SMILES: COc1ccc(-c2ccc(NC(=O)Nc3cccc(Br)c3)cc2)c2c(N)noc12
ED50 (Mus musculus): 1 mg/kg

IC50 [1]: 14800 nM
SMILES: Nc1ccc(-c2cccc3onc(N)c23)cc1
